The target of test [1] is T1, 64 kDa MMP-2 (Homo sapiens, UniProt P08253).
T1 sequence (P08253 110-660): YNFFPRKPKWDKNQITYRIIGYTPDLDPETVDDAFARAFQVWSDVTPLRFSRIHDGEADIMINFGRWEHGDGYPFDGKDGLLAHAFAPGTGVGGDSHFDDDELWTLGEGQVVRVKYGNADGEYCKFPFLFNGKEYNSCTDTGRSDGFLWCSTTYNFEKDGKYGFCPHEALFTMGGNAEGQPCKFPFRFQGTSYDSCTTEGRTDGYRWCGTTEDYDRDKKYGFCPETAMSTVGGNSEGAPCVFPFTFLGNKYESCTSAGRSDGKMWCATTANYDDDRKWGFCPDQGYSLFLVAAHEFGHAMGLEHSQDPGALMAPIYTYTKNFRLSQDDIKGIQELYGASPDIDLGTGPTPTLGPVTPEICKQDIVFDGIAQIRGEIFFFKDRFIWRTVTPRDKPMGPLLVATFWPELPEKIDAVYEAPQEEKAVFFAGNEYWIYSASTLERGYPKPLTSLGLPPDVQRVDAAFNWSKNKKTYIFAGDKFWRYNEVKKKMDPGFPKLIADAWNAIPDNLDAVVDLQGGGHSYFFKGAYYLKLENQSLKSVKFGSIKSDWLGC
Nature of the test: OmniMMP fluorogenic substrate kinetic assay of MMP-2 activity. In kind it is biochemical. Conditions: for IC50: 15 µM substrate; for IC50 values (range in words): substrate degradation assay, 64 kDa MMP-2.

Test [2] concerns PARP. Conditions: in animal models; cited from earlier work.
Test [3] relates to PARP. Conditions: in vitro; cited from earlier work.
For test [4], the target named is T1, 64 kDa MMP-2. Nature of the test: Gelatinolytic activity of MMP-2 by gelatin zymography. The class given is biochemical.
[5] abbreviates: IC50 ± SD, 1 nM ZnSO4, 50 mM Tris pH 7.6, 37 °C.
[6] abbreviates: IC50 ± SD, 10 µM ZnSO4, 50 mM Tris pH 7.6, 10 mM CaCl2, 0.05% Brij-35, 37 °C.
Setting [7] is: read-out: IC50 ± SD, 10 µM ZnSO4, 50 mM Tris pH 7.6, 10 mM CaCl2, 0.05% Brij-35, 37 °C.

Read-outs that look alike come from different tables or passages of the source.

By IC50 is commonly meant the concentration needed to halve the response being measured. Consider `NC(=O)c1cccc(N)c1` [3-AB, 3-Aminobenzamide], for which the IC50 in test [1] (setting [5]) was 1000 ± 200 µM; in test [1] (setting [6]), 1760 ± 220 µM. In addition, the “IC50 values (range in words)” value in test [1] was “millimolar range”. Further, the “potency for PARP inhibition” value in test [2] was “millimolar range”; in test [3], “micromolar range”.
`Nc1cccc2c(=O)[nH]ccc12` [5-AIQ, 5-aminoisoquinolinone]: the IC50 in test [1] (setting [7]) amounted to 102 ± 34 µM. The “IC50 values (range in words)” value in test [1] was “high micromolar range”.
`C[C@H]1c2cccc(O)c2C(=O)C2=C(O)[C@]3(O)C(=O)C(C(N)=O)=C(O)[C@@H](N(C)C)[C@@H]3[C@@H](O)[C@@H]21` [Doxycycline, doxycycline]: the figures for the IC50 in test [1] (setting [5]) and in test [1] (setting [6]) were 93 ± 12 µM and 86 ± 13 µM, respectively.
For `Nc1ncnc2c1ncn2[C@@H]1O[C@H](C(=O)N2CCN(CC(=O)Nc3cccc4c3CNC4=O)CC2)[C@@H](O)[C@H]1O` [EB-47, 1-piperazineacetamide-4-[1-(6-amino-9H-purin-9-yl)-1-deoxy-D-ribofuranuron]-N-(2,3-dihydro-1H-isoindol-4-yl)-1-one], the IC50 in test [1] (setting [7]) was more than 3000 µM. The “IC50 values (range in words)” value in test [1] is “millimolar range”.
The compound `CN(C)c1ccc(O)c2c1C[C@H]1C[C@H]3[C@H](N(C)C)C(O)=C(C(N)=O)C(=O)[C@@]3(O)C(O)=C1C2=O` [Minocycline, minocycline] displayed an IC50 in test [1] (setting [6]) of 57 ± 6 µM.
Take `CN(C)CC(=O)Nc1ccc2[nH]c(=O)c3ccccc3c2c1` [PJ-34, 2-(dimethylamino)-N-(5,6-dihydro-6-oxophenanthridin-2-yl)acetamide]: the IC50 in test [4] amounted to 9.2 mM; in test [1] (setting [5]), 27 ± 10 µM; in test [1] (setting [6]), 56 ± 14 µM. Further, the “IC50 values (range in words)” value in test [1] is listed as “high micromolar range”.
Regarding `c1cnc2c(c1)ccc1cccnc12` [o-Phenanthroline, o-phenanthroline], in test [1] (setting [5]), the IC50 stood at 116 ± 9 µM.

The values above are taken from publication PMC2756481 (Biochemical and biophysical research communications, 2009).
